From US11345914B2, “Composition for delivering nucleic acid and nucleic acid-containing composition” (TOKYO UNIVERSITY OF PHARMACY AND LIFE SCIENCES, priority 2017, dated 2022)

System: CIA (Collagen-Induced Arthritis) Mouse
Assay: In vivo evaluation arthritis treatment effect of CIA mice
Conditions: until 15th day, siRNA (RelA) 20 μg/day tail vein (composition as Example 24, N/P 20), MTX 90 μg intraperitoneal
Procedure: Under ice-cooling, while adding an equal amount of type II collagen solution (2 mg/mL) dropwise to complete Freund's adjuvant (CFA), the mixture was homogenized to prepare an emulsion. Similarly, while adding an equal amount of type II collagen solution (2 mg/mL) dropwise to incomplete Freund's adjuvant (IFA), the mixture was homogenized to prepare an emulsion. The prepared emulsion was confirmed to have formed a w/o type emulsion by maintaining a sphere even when it was dropped on the water surface, and was used in the experiment.
Using 8-weeks old male DBA/1J mice, CIA mice were prepared. In the following, the schedule for preparing CIA mice is shown. 100 μL of the emulsion obtained from type II collagen and CFA prepared at −21′ day was intradermally administered to the tail root portion to carry out induction of the first immunization. 100 μL of the emulsion obtained from type II collagen and […] prepared at 0th day was similarly intradermally administered to carry out additional induction of the immunization. At this time, the intradermal administration was carried out reliably was confirmed by the fact that the administered site was protruded with white. […]
Thickening of the hindlimb ankle joint portion was measured by using a micrometer. […]
Clinical score was calculated as follows. […]

## CN(Cc1cnc2nc(N)nc(N)c2n1)c1ccc(C(=O)N[C@@H](CCC(=O)O)C(=O)O)cc1 [MTX, methotrexate]
FIG. 4
  thickening increasing rate of the hindlimbs: thickening of the hindlimbs was admitted
FIG. 5
  clinical score: remarkable increase in the clinical score was admitted
